Assay results taken from ChEMBL document CHEMBL2385054, “Lead optimization of a 4-aminopyridine benzamide scaffold to identify potent, selective, and orally bioavailable TYK2 inhibitors” (J Med Chem, 2013).
Converted amounts (≈) assume the structure as drawn.

Legend:
in vitro [1] = details: rat, plasma
in vivo [2] = details: CD1, mouse, plasma, po, 100 mg/kg
in vitro [3] = details: dog, MDCK
Mus musculus [4] = species on record: Mus musculus; assay: animal or person; details: C57BL/6, po, read-out: INH
physchem [5] = details: octanol/aqueous buffer, pH 7.4
Mus musculus [6] = species on record: Mus musculus; assay: animal or person; details: C57BL/6, po, read-out: INH; remark: listed apart in the source
in vitro [7] = details: mouse, plasma
Mus musculus [8] = species on record: Mus musculus; assay: animal or person; details: C57BL/6, po, read-out: INH; remark: listed apart in the source
Mus musculus [9] = species on record: Mus musculus; assay: animal or person; details: C57BL/6, po, read-out: INH; remark: listed apart in the source
in vitro [10] = details: rat, liver microsomes
in vivo [11] = details: Sprague-Dawley, rat, iv, 1 mg/kg
in vitro [12] = details: dog, MDCK; remark: listed apart in the source
in vivo [13] = details: Sprague-Dawley, rat
in vitro [14] = details: human, liver microsomes
physchem [15] = details: PBS buffer, pH 7.4
in vitro [16] = details: mouse, liver microsomes
in vivo [17] = details: Sprague-Dawley, rat, plasma, iv, 1 mg/kg
in vivo [18] = details: Sprague-Dawley, rat, po, 5 mg/kg
in vitro [19] = details: human, plasma
in vivo [20] = details: CD1, mouse, po, 100 mg/kg
in vivo [21] = details: CD1, mouse
in vivo [22] = details: CD1, mouse, po, 5 mg/kg
in vivo [23] = details: CD1, mouse, plasma, iv, 1 mg/kg
in vivo [24] = details: CD1, mouse, iv, 1 mg/kg
in vivo [25] = details: CD1, mouse, plasma, po, 5 mg/kg
in vivo [26] = details: CD1, mouse, plasma, iv, 1 mg/kg; remark: listed apart in the source
[27] = target: Ribosomal protein S6 kinase alpha-6 (Homo sapiens) (UniProt Q9UK32); details: 180 nM
in vitro [28] = details: human, liver microsomes; remark: listed apart in the source
[29] = target: Ribosomal protein S6 kinase alpha-2 (Homo sapiens) (UniProt Q15349); details: 180 nM
Homo sapiens = species on record: Homo sapiens; details: 180 nM
[30] = target: Tyrosine-protein kinase Lck (Homo sapiens) (UniProt P06239); details: 180 nM
[31] = target: Ribosomal protein S6 kinase alpha-3 (Homo sapiens) (UniProt P51812); details: 180 nM
[32] = target: Cyclin-dependent kinase 5 (Homo sapiens) (UniProt Q00535); details: 180 nM
Sequence of Cyclin-dependent kinase 5 (Homo sapiens) (Q00535 whole entry, looked up): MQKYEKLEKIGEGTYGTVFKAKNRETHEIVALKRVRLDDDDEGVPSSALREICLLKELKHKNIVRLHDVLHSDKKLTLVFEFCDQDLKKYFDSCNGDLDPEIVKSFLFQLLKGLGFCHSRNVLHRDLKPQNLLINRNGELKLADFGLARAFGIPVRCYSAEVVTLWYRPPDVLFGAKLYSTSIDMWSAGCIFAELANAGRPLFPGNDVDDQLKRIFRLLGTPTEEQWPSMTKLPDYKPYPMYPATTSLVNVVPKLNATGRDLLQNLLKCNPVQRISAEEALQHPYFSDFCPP

Sequence of Ribosomal protein S6 kinase alpha-6 (Homo sapiens) (Q9UK32 whole entry): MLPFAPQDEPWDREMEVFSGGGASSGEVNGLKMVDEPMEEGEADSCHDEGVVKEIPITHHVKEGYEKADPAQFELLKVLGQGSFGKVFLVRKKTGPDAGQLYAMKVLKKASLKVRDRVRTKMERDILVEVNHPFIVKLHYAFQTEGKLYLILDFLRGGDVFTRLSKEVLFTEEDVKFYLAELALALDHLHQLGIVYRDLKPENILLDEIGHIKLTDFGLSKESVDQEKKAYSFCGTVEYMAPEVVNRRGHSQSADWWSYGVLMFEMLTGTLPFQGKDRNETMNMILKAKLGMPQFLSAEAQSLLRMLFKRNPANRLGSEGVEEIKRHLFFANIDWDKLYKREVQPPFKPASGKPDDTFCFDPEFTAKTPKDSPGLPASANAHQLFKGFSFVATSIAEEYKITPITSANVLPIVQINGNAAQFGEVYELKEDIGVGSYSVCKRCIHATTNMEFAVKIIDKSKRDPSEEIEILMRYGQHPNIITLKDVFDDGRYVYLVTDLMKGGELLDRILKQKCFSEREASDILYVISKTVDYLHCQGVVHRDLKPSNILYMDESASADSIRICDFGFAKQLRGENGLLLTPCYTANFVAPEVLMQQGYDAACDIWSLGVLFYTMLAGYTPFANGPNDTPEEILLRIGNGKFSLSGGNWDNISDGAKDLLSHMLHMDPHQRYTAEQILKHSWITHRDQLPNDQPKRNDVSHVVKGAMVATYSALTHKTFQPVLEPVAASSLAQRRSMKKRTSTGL
Sequence of Ribosomal protein S6 kinase alpha-3 (Homo sapiens) (P51812 whole entry): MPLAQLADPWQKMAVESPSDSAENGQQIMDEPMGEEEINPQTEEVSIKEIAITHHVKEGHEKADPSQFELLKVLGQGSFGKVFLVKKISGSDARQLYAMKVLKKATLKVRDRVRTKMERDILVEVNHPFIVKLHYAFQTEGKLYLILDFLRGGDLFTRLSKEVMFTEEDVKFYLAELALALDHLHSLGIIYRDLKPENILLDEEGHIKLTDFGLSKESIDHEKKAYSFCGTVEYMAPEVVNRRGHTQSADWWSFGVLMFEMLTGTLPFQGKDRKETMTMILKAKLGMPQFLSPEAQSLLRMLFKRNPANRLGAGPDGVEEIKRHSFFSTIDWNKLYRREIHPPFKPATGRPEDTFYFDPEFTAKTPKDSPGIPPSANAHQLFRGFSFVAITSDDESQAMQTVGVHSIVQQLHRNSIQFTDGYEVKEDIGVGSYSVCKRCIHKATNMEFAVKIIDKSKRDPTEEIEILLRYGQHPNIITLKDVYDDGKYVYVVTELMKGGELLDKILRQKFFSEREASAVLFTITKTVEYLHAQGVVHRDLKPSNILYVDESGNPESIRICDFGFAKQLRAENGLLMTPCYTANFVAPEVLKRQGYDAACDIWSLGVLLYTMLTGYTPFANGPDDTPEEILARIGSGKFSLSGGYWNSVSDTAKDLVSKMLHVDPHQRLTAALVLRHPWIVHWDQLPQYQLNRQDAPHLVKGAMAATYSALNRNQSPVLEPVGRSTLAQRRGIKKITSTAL
Sequence of Tyrosine-protein kinase Lck (Homo sapiens) (P06239 2-509 limits assumed): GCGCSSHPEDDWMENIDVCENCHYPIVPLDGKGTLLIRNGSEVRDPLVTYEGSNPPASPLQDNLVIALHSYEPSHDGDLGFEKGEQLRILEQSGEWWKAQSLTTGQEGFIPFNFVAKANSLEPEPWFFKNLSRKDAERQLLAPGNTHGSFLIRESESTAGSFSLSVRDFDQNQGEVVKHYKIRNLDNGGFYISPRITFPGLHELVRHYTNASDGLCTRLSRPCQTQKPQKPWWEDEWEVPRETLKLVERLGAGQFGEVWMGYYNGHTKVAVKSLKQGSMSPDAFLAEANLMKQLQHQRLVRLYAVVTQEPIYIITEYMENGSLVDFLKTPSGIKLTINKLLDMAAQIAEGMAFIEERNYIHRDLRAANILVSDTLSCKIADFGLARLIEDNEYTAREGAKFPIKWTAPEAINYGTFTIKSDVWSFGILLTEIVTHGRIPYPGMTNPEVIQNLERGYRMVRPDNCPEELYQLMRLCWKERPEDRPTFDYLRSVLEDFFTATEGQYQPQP
Sequence of Ribosomal protein S6 kinase alpha-2 (Homo sapiens) (Q15349 whole entry): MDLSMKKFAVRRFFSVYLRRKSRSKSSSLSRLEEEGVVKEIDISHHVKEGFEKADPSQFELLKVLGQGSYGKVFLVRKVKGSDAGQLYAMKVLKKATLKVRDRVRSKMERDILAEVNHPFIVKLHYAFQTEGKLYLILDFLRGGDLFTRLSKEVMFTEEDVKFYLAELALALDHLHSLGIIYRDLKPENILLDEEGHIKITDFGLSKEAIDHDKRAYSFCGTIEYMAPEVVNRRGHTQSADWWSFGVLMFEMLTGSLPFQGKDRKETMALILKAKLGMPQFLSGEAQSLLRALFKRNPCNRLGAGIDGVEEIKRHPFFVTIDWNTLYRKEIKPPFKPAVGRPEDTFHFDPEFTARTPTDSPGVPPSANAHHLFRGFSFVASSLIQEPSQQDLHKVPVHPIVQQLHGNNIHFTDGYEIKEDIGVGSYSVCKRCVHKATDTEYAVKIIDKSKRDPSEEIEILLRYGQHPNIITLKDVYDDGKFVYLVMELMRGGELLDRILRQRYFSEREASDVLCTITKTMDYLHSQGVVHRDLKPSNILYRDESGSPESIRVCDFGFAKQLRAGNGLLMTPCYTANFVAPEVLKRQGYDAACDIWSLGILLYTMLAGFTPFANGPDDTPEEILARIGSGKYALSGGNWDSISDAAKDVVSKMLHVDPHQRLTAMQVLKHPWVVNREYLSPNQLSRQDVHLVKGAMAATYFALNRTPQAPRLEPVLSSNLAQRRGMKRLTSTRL

| Structure (SMILES) | fraction unbound (in vitro [1]) | AUC (in vivo [2]) [µM·h] | Papp A→B (in vitro [3]) [×10⁻⁶ cm/s] | logD (physchem [5]) | fraction unbound (in vitro [7]) | CLhep predicted (in vitro [10]) [mL/min/kg] | Vd (in vivo [11]) [L/kg] | efflux ratio (in vitro [12]) | half-life (in vivo [13]) [h] | CLhep predicted (in vitro [14]) [mL/min/kg] | solubility (physchem [15]) [µg/mL] | CLhep predicted (in vitro [16]) [mL/min/kg] | clearance (in vivo [17]) [mL/min/kg] | bioavailability (in vivo [18]) [%] | fraction unbound (in vitro [19]) | Cmax (in vivo [20]) [µM] | further results |
| --- | --- | --- | --- | --- | --- | --- | --- | --- | --- | --- | --- | --- | --- | --- | --- | --- | --- |
| O=C(Nc1ccnc(NC(=O)C2CC2)c1)c1c(Cl)cccc1Cl | 0.041 | – | 30 | 3.4 | 0.044 | 16 | 1.1 | 0.4 | 1.2 | 7 | – | 64 | 21 | 100 | 0.049 | – | half-life (in vivo [21]): 0.3 h; bioavailability (in vivo [22]): 73%; clearance (in vivo [23]): 65 mL/min/kg; Vd (in vivo [24]): 0.6 L/kg; AUC (in vivo [25]): 2.6 µM·h; clearance (in vivo [26]): 65 mL/min/kg |
| O=C(Nc1ccnc(NC(=O)C2CC2)c1)c1c(Cl)cc(-c2cn[nH]c2)cc1Cl | – | – | – | – | – | – | – | – | – | – | 1 (≈ 2.4 µM) | – | – | – | – | – | – |
| O=C(Nc1ccnc(NC(=O)C2CC2)c1)c1c(Cl)cc(-c2nnc[nH]2)cc1Cl | – | – | – | – | – | – | – | – | – | – | 2 (≈ 4.79 µM) | – | – | – | – | – | – |

Continued, in another order:

| fraction unbound (in vitro [1]) | AUC (in vivo [2]) [µM·h] | Papp A→B (in vitro [3]) [×10⁻⁶ cm/s] | logD (physchem [5]) | fraction unbound (in vitro [7]) | CLhep predicted (in vitro [10]) [mL/min/kg] | Vd (in vivo [11]) [L/kg] | efflux ratio (in vitro [12]) | half-life (in vivo [13]) [h] | CLhep predicted (in vitro [14]) [mL/min/kg] | solubility (physchem [15]) [µg/mL] | CLhep predicted (in vitro [16]) [mL/min/kg] | clearance (in vivo [17]) [mL/min/kg] | bioavailability (in vivo [18]) [%] | fraction unbound (in vitro [19]) | Cmax (in vivo [20]) [µM] | Structure (SMILES) | further results |
| --- | --- | --- | --- | --- | --- | --- | --- | --- | --- | --- | --- | --- | --- | --- | --- | --- | --- |
| 0.09 | 917 | 11 | 2.5 | 0.05 | 11 | 2.3 | 1.5 | 40 | 8 | 53 (≈ 141 µM) | 34 | 1 | 70 | 0.134 | 108 | N#Cc1cc(F)c(C(=O)Nc2ccnc(NC(=O)[C@H]3C[C@H]3F)c2)c(Cl)c1 | inhibition in vivo at 100 mg/kg (Mus musculus [4]): 77%; inhibition in vivo at 10 mg/kg (Mus musculus [6]): 60%; inhibition in vivo at 70 mg/kg (Mus musculus [8]): 88%; inhibition in vivo at 30 mg/kg (Mus musculus [9]): 72% |
| 0.082 | 1090 | 12 | 2.8 | 0.017 | 10 | 1 | 1.5 | 4.1 | 11 | 74 (≈ 188 µM) | 36 | 4.6 | 100 | 0.068 | 143 | N#Cc1cc(Cl)c(C(=O)Nc2ccnc(NC(=O)[C@H]3C[C@H]3F)c2)c(Cl)c1 | – |
| 0.122 | – | 30 | – | 0.036 | 20 | 1.2 | 0.4 | 0.5 | 4 | 28 (≈ 79.6 µM) | 64 | 39 | 100 | 0.066 | – | O=C(Nc1ccnc(NC(=O)[C@H]2C[C@H]2F)c1)c1c(F)cccc1Cl | – |
| 0.059 | 818 | 15 | 3.2 | 0.032 | 12 | 0.8 | 1 | 4.2 | 8 | 64 (≈ 171 µM) | 38 | 3.1 | 86 | 0.022 | 119 | N#Cc1cc(Cl)c(C(=O)Nc2ccnc(NC(=O)C3CC3)c2)c(Cl)c1 | inhibition [27]: 80%; metabolised (in vitro [28]): < 2%; inhibition [29]: 80%; half-life (in vivo [21]): 1 h; bioavailability (in vivo [22]): 100%; inhibition (Homo sapiens): 68%; inhibition [30]: 61%; Vd (in vivo [24]): 0.9 L/kg; inhibition [31]: 73%; clearance (in vivo [26]): 13 mL/min/kg; inhibition [32]: 61% |
| 0.048 | 50 | 20 | 2.9 | 0.018 | 21 | 1 | 0.8 | 1.8 | 11 | 126 (≈ 342 µM) | 55 | 15 | 100 | 0.025 | 47 | O=C(Nc1ccnc(NC(=O)[C@H]2C[C@H]2F)c1)c1c(Cl)cccc1Cl | – |
